In patent US11173135B2 (Thiogenesis Therapeutics, Inc., priority 2016, dated 2021):

Tests used:
[1] = Dissolution of TTI-0602 dose in saline; assay type: physicochemical; conditions: 120 mg/kg dose in 3 milliliters of saline
[2] = Tissue levels of cysteamine in liver and kidney at end of PK study; assay type: in vivo, Sprague-Dawley rats; conditions: 10.5 hours after TTI-0602 120 mg/kg, all three rats
Method: (§1) In addition to the plasma samples, gastrointestinal contents (stomach contents, proximal small intestinal contents, distal small intestinal contents and cecum/colon contents), liver, kidney and spleen were obtained from rats at the end of the study (10.5 hours after dosing) and snap frozen. Tissue levels of cysteamine, N-acetyl cysteamine and pantothenic acid were measured in the gastrointestinal contents and in liver and kidney tissue. […]

[3] = Analysis of gastrointestinal contents at end of PK study; assay type: in vivo, Sprague-Dawley rats; conditions: 120 mg/kg rats, ten hours after dosing
Method: as §1

[4] = cited from earlier work
[5] = test system: CYP1A2, CYP2A6, CYP2B6, CYP2C8, CYP2C9, CYP2C19, CYP2D6, CYP2E1 and CYP3A4; conditions: in vitro; cited from earlier work
[6] = test system: Plasmodium Falciparum; conditions: in vitro and in mouse models of malaria; cited from earlier work
[7] = test system: children with NAFLD; conditions: pediatric NAFLD patients treated for 24 weeks; cited from earlier work
[8] = test system: CYP1A2, CYP2B6, CYP2C8, CYP2C9, CYP2C19, CYP2D6, CYP2E1, CYP2A6, CYP3A4; conditions: in vitro; cited from earlier work
[9] = test system: erythrocytes from sickle cell disease patients; conditions: hypoxic conditions; cited from earlier work
[10] = test system: kidney fibrosis; conditions: two mouse models; cited from earlier work
[11] = Lynovex from Novabiotics; cited from earlier work
[12] = administered to fasting patients; cited from earlier work
[13] = test system: R6/2 HD mouse model; conditions: R6/2 mouse; cited from earlier work
[14] = test system: Pseudomonas aeruginosa; conditions: cited from earlier work
[15] = test system: cancer cell lines and xenograft models; conditions: cited from earlier work
[16] = in vivo; cited from earlier work
[17] = test system: cystinosis patients; conditions: high doses, syrup between meals; cited from earlier work
[18] = cystinuria patients; cited from earlier work
[19] = Pharmacokinetic study of TTI-0602: cysteamine in blood plasma after gavage; assay type: in vivo, Sprague-Dawley rats
Method: Thus in the discussion below, and in the accompanying figures, a “30 mg/kg” dose of TTI-0602 means 77.92 mg/kg was administered, a “60 mg/kg” dose of TTI-0602 means 155.84 mg/kg was administered and a “120 mg/kg” dose of TTI-0602 means 311.68 mg/kg was administered. The purpose of this nomenclature, which is widely used in the literature concerning cysteamine salts, is to facilitate comparison of doses of different cysteamine precursors and cysteamine salts.
The TTI-0602 doses were prepared for 250 gram rats, but the actual masses of the rats at the time of drug administration varied from 267-300 grams, so the actual doses, normalized to body weight, ranged from 26.1-27.1 mg/kg in group 1, 51.7-56.2 mg/kg in group 2 and 108.3-109.5 mg/kg in group 3. Nonetheless, for convenience those doses are referred to as 30, 60 and 120 mg/kg.
Blood samples were obtained from rats immediately before dosing and 5, 10, 20, 30, 45, 60, 90, 120, 180, 240, 300 and 600 minutes after dosing via carotid artery catheters surgically implanted before the PK study. Plasma was obtained from blood by centrifugation and snap frozen. Several days later plasma samples were thawed on ice and each plasma sample was aliquoted to two paired tubes (20 μL per tube), one of which was processed for measurement of thiols (after quantitative disulfide bond reduction), while the other was processed for analysis of disulfides.
To quantitatively reduce disulfide bonds the plasma in the first tube was treated with 5 mM tris(2-carboxyethyl)phosphine (TCEP), a selective and potent disulfide bond reducing agent, using a protocol reported by Dohil et al. (2012). Briefly, 2.2 ul of freshly prepared 50 mM TCEP stock solution was added to 20 ul of plasma and the sample incubated at 37 degrees C. for 45 minutes. […]
The denatured protein was pelleted by centrifugation at 14,000 rpm for 10 minutes at 4 degrees C. in an Eppendorf microcentrifuge. […] Metabolites were analyzed using a Nexera X2 U-HPLC (Shimadzu) and a Q-Exactive hybrid quadrupole Orbitrap mass spectrometer (Thermo Fisher Scientific). […]

[20] = test system: ALT and AST in plasma; test: Example 9 NASH patient case: plasma liver enzymes; assay type: in vivo, human; conditions: within six weeks of initiating therapy; with vitamin C and vitamin E
Method: The daily dose of vitamin C is 2 grams and the daily dose of vitamin E is 800 international units of alpha tocopherol, RRR stereoisomer, which amounts to 533.3 milligrams per day (1 IU of tocopherol is defined as % milligrams of RRR-alpha-tocopherol). Half those amounts are administered twice per day.
Drug is administered in two divided doses (1,392 mg each) at 10 to 12 hour intervals, with breakfast and dinner.
In the second category (dynamic markers of drug response) levels of ALT and AST in plasma are followed over time as an index of ongoing hepatocyte damage. […] If ALT and AST levels had not dropped by 50% the regimen would have been discontinued.

[21] = test system: white blood cell (WBC) cystine; test: Example 8 cystinosis patient cases: white blood cell cystine; assay type: in vivo, human
Description: (§2) Dose formulations and treatment regimens for three patients with cystinosis are described, to illustrate both demographic variability in the patient population and how inter-individual biochemical variation in drug absorption, metabolism and response can be overcome by exploiting the drug and dosage form flexibility provided by the invention. These examples illustrate the principles of cysteamine precursor selection, dosage form selection and dose regimen individualization.
Disease control is monitored via periodic measurement of white blood cell cystine levels. The therapeutic target, as for all cystinosis patients, is to suppress white blood cell (WBC) cystine to less than 1 nanomole of ½ cystine per mg of WBC protein. […] If this higher dose is still not effective in controlling WBC cystine levels the dose can be further increased in increments of 150 mg/day.

[22] = Example 8 cystinosis patient cases: plasma cysteamine levels; assay type: in vivo, human
Description: as §2

[23] = cysteamine hydrochloride at 30 mg/kg cysteamine base, gavage

Compound: CC(=O)NCCSSCCNC(=O)CCNC(=O)[C@H](O)C(C)(C)CO [TTI-0602, N-acetylcysteamine-(R)-pantetheine disulfide]
- dissolution of dose in saline [1]: did not completely dissolve in saline
- tissue level of cysteamine in kidney [2]: over 50 uM
- tissue level of cysteamine in liver [2]: over 50 uM
- undissolved drug in gastrointestinal contents [3]: a substantial amount of undissolved drug remained stuck in the stomachs of rats 8 and 9

Compound: NCCS [cysteamine bitartrate]
- Cmax ([4]; read-out: Cmax of cysteamine, cysteamine bitartrate 20 mg/kg cysteamine base equivalent): 81.9 µM

Compound: NCCS [cysteamine, 2-aminoethanethiol]
- inhibition of CYP enzymes [5]: not an inhibitor of CYP1A2, CYP2A6, CYP2B6, CYP2C8, CYP2C9, CYP2C19, CYP2D6, CYP2E1 and CYP3A4
- proliferation of the parasite [6]: inhibits proliferation
- high molecular weight adiponectin multimers [7]: increased levels of high molecular weigh adiponectin multimers
- metabolism by CYP enzymes [8]: likely to be metabolized by multiple CYP enzymes, including CYP1A2, CYP2B6, CYP2C8, CYP2C9, CYP2C19, CYP2D6, and CYP2E1, but not by CYP2A6 or CYP3A4
- sickling [9]: marked inhibition of sickling
- efficacy in kidney fibrosis models [10]: effective
- mucolytic activity vs. currently available mucolytic agents [11]: at least comparable mucolytic activity
- inter-patient variation in cysteamine plasma levels [12]: up to four fold
- beneficial effects in HD mouse model [13]: amelioration of weight loss and motor abnormalities, and prolongation of survival
- effect on biofilms ([14]; P. aeruginosa biofilms): prevented the formation of, and disrupted established P. aeruginosa biofilms
- bactericidal activity ([14]; Pseudomonas aeruginosa and other CF pathogens, Lynovex from Novabiotics): bactericidal
- matrix metalloproteinase activity ([15]; animal xenografts and cancer cell lines): significantly decreased
- survival of mice ([15]; xenograft models): prolonged survival of mice in a dose-dependent manner without toxicity

Compound: CC(C)(COP(=O)(O)O)[C@@H](O)C(=O)NCCC(=O)NCCS [4-phosphopantetheine]
- half life in blood [16]: over 3 hours

Compound: CC(C)(CO)[C@@H](O)C(=O)NCCC(=O)NCCSSCCNC(=O)CCNC(=O)[C@H](O)C(C)(C)CO [pantethine]
- gastrointestinal side effect [17]: caused diarrhea

Compound: CC(S)C(=O)NCC(=O)O (centres unmarked) [tiopronin]
- tolerability [18]: not well tolerated by most patients

Compound: CC(S)C(=O)NCC(=O)O (stereo not drawn) [Alpha-mercaptopropionylglycine]
- tolerability [18]: not tolerated by about one third of patients

Compound: Cl.NCCS [cysteamine HCl, cysteamine hydrochloride]
- shape of the plasma cysteamine concentration-time curve ([19]; cysteamine hydrochloride 30 mg/kg vs TTI-0602 120 mg/kg): a high, sharp peak
- peak plasma cysteamine concentration [19, 23]: over 200 uM
- time by which cysteamine concentration declined to less than half maximal [19, 23]: ≤ 90 min

Compound: CC(=O)NC(CSSCCN)C(=O)O (centres unmarked) [cysteamine-N-acetylcysteine, cysteamine-N-acetylcysteine disulfide]
- fall in plasma ALT [20]: at least 50%
- fall in plasma AST [20]: at least 50%

Compound: NCCS.O=C(O)C(O)C(O)C(=O)O (centres unmarked) [cysteamine bitartrate]
- time by which cysteamine levels returned to baseline ([4]; cysteamine bitartrate 20 mg/kg cysteamine base equivalent): ≤ 2 h
- cysteamine eliminated by 150 minutes (inferred) ([4]; cysteamine bitartrate 20 mg/kg, tissue): over 95%
- tissue half life of cysteamine ([4]; cysteamine bitartrate 20 mg/kg): 25 to 29 min

Compound: CC(C)(CO)[C@@H](O)C(=O)NCCC(=O)NCCSSCCN [cysteamine-pantetheine disulfide, cysteamine-(R)-pantetheine disulfide]
- WBC cystine level ([21]; Patient 2, after sustained release component increased from 540 to 800 mg/day): 0.9 nanomoles of ½ cystine per mg protein
- WBC cystine level ([21]; Patient 2, after two months, 1,800 mg/day cysteamine free base as IR/DR/SR powders): 1.34 nanomoles of ½ cystine per mg of protein
- plasma cysteamine level six hours after the morning dose ([22]; Patient 2, 1,800 mg/day as IR/DR/SR powders): 22 µM
- plasma cysteamine level 12 hours after the morning dose ([22]; Patient 2, immediately before the evening dose): 4 µM

Compound: CC(C)(S)[C@@H](N)C(=O)O [penicillamine]
- tolerability [18]: not well tolerated by most patients
